Experimental data published in US8741807B2 (priority 2011, dated 2014).
Where two headings read alike, the source gives them in different places.

System: rice blast fungus (Kyu89-246, MAFF101506, race 003.0)
Type: in vivo
Details: inoculated next day, 6 days after inoculation, five-leaf stage

| Structure (SMILES) | resistance to rice blast (number of lesions) (sprayed at 5 mM) | resistance to rice blast (number of lesions) (sprayed at 1 mM) |
| --- | --- | --- |
| NCCCCN(CCCN)C(=O)CCCCCCCCCCCO [YIS12OH4N, ^4N-(12-hydroroxylauroyl)-spermidine] | showed resistance to rice blast |  |
| NCCCCNCCCNC(=O)CCCCCCCCCCCO [YIS12OH1N, 1-N-(12-hydroroxylauroyl)-spermidine] | showed resistance to rice blast | provided the resistance |
